Data as given in US20170037028A1 (BAYER PHARMA AKTIENGESELLSCHAFT, priority 2013, published 2017).
Like-named read-outs stand apart in the source and are kept apart here.

Target: T1, GLUT1 (Homo sapiens, UniProt P11166)
T1 sequence (P11166 1-492): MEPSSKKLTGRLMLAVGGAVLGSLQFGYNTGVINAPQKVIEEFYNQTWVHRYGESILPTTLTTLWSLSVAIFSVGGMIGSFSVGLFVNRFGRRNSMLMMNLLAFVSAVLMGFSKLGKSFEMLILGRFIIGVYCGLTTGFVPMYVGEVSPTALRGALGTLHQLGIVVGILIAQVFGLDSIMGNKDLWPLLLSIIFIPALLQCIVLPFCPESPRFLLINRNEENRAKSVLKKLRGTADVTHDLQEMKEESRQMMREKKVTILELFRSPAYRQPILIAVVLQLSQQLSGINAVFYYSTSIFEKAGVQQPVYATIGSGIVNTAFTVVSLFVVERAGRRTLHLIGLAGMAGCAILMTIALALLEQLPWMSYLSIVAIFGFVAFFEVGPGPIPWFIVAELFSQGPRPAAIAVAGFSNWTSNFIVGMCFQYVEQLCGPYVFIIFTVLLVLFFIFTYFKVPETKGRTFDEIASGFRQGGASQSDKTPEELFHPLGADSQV
Experiment: Indirect measurement of GLUT1 activity by quantification of intracellular ATP levels (glucose induced ATP increase)
Assay type: cell-based
Set-up: endogenous in cells; host or cells: DLD1 or CHO-K1
Settings: read-out: IC50 regarding glucose induced ATP increase (GLUT1 inhibition)
Summary of the method: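 Intracellular ATP was measured by CellTiter-Glo luminescence as an indirect readout of transport: glucose-driven for GLUT1, fructose-driven for GLUT2. DLD1 or CHO-K1 cells were used alongside an oxidative phosphorylation inhibitor. Beforehand, cells were held overnight in glucose-free 1% FCS medium to deplete ATP.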

IC50 [nM]	Structure (SMILES)	IC50 (DLD1 cells, 0.1 mM glucose, 1 μM Rotenone, 15 min, CellTiter-Glo ATP readout, IC50 values standardized to cytochalasin B IC50 values) [nM]
4.4	Cc1c(NC(=O)c2cc(C(N)=O)nc3ccccc23)c(C(F)(F)F)nn1Cc1ccc(C#N)cn1 [Example 361, N^4-{1-[(5-cyanopyridin-2-yl)methyl]-5-methyl-3-(trifluoromethyl)-1H-pyrazol-4-yl}quinoline-2,4-dicarboxamide]	
5.5	Cc1c(NC(=O)c2cc(C(F)(F)F)nc3ccc(Br)cc23)c(C(F)(F)F)nn1Cc1ccc(C#N)cn1 [Example 362, 6-bromo-N-{1-[(5-cyanopyridin-2-yl)methyl]-5-methyl-3-(trifluoromethyl)-1H-pyrazol-4-yl}-2-(trifluoromethyl)quinoline-4-carboxamide]	
6	Cc1c(NC(=O)c2cc(C(N)=O)nc3cccc(F)c23)c(C(F)(F)F)nn1Cc1ccc(C#N)cn1 [Example 363, N^4-{1-[(5-cyanopyridin-2-yl)methyl]-5-methyl-3-(trifluoromethyl)-1H-pyrazol-4-yl}-5-fluoroquinoline-2,4-dicarboxamide]	
6.6	Cc1c(NC(=O)c2cc(C(N)=O)nc3cc(F)c(F)cc23)c(C(F)(F)F)nn1Cc1ccc(C#N)cn1 [Example 364, N^4-{1-[(5-cyanopyridin-2-yl)methyl]-5-methyl-3-(trifluoromethyl)-1H-pyrazol-4-yl}-6,7-difluoroquinoline-2,4-dicarboxamide]	
26.6	COc1cc(C(=O)Nc2c(C(F)(F)F)nn(Cc3ccc(C#N)cn3)c2C)c2ccccc2n1 [Example 365, N-{1-[(5-cyanopyridin-2-yl)methyl]-5-methyl-3-(trifluoromethyl)-1H-pyrazol-4-yl}-2-methoxyquinoline-4-carboxamide]	
	Cc1ccc2nc(C(N)=O)cc(C(=O)Nc3c(C(F)(F)F)nn(Cc4ccc(C#N)cc4)c3C)c2c1 [Example 366, N^4-[1-(4-cyanobenzyl)-5-methyl-3-(trifluoromethyl)-1H-pyrazol-4-yl]-6-methylquinoline-2,4-dicarboxamide]	7
2.3	COC(=O)c1ccc(Cn2nc(C(F)(F)F)c(NC(=O)c3cc(C(N)=O)nc4cc(F)ccc34)c2C)cc1 [Example 367, methyl 4-{[4-{[(2-carbamoyl-7-fluoroquinolin-4-yl)carbonyl]amino}-5-methyl-3-(trifluoromethyl)-1H-pyrazol-1-yl]methyl}benzoate]	
418	Cc1c(NC(=O)c2cc(C(N)=O)nc3cc(F)ccc23)c(C(F)(F)F)nn1Cc1ccc(C(=O)O)cc1 [Example 368, 4-{[4-{[(2-carbamoyl-7-fluoroquinolin-4-yl)carbonyl]amino}-5-methyl-3-(trifluoromethyl)-1H-pyrazol-1-yl]methyl}benzoic acid]	
12.4	Cc1c(NC(=O)c2cc(C(N)=O)nc3cc(F)ccc23)c(C(F)(F)F)nn1Cc1ccc(C(N)=O)cc1 [Example 369, N^4-[1-(4-carbamoylbenzyl)-5-methyl-3-(trifluoromethyl)-1H-pyrazol-4-yl]-7-fluoroquinoline-2,4-dicarboxamide]	
12.8	CNC(=O)c1ccc(Cn2nc(C(F)(F)F)c(NC(=O)c3cc(C(N)=O)nc4cc(F)ccc34)c2C)cc1 [Example 370, 7-fluoro-N^4-{5-methyl-1-[4-(methylcarbamoyl)benzyl]-3-(trifluoromethyl)-1H-pyrazol-4-yl}quinoline-2,4-dicarboxamide]	
243	Cc1c(NC(=O)c2cc(C(N)=O)nc3cc(F)ccc23)c(C(F)(F)F)nn1Cc1ccc(C(=O)N(C)C)cc1 [Example 371, N^4-{1-[4-(dimethylcarbamoyl)benzyl]-5-methyl-3-(trifluoromethyl)-H-pyrazol-4-yl}-7-fluoroquinoline-2,4-dicarboxamide]	
20	Cc1c(NC(=O)c2cc(C(N)=O)nc3cc(F)ccc23)c(C(F)(F)F)nn1Cc1ccc(C(=O)N2CCC2)cc1 [Example 372, N^4-{1-[4-(azetidin-1-ylcarbonyl)benzyl]-5-methyl-3-(trifluoromethyl)-1H-pyrazol-4-yl}-7-fluoroquinoline-2,4-dicarboxamide]	
17.5	COCCNC(=O)c1ccc(Cn2nc(C(F)(F)F)c(NC(=O)c3cc(C(N)=O)nc4cc(F)ccc34)c2C)cc1 [Example 373, 7-fluoro-N^4-[1-{4-[(2-methoxyethyl)carbamoyl]benzyl}-5-methyl-3-(trifluoromethyl)-1H-pyrazol-4-yl]quinoline-2,4-dicarboxamide]	
895	Cc1c(NC(=O)c2cc(C(N)=O)nc3cc(F)ccc23)c(C(F)(F)F)nn1Cc1ccc(C(=O)NCCN(C)C)cc1 [Example 374, N^4-[1-(4-{[2-(dimethylamino)ethyl]carbamoyl}benzyl)-5-methyl-3-(trifluoromethyl)-1H-pyrazol-4-yl]-7-fluoroquinoline-2,4-dicarboxamide]	
123	Cc1c(NC(=O)c2cc(C(N)=O)nc3cc(F)ccc23)c(C(F)(F)F)nn1Cc1ccc(C(=O)NCCO)cc1 [Example 375, 7-fluoro-N^4-[1-{4-[(2-hydroxyethyl)carbamoyl]benzyl}-5-methyl-3-(trifluoromethyl)-1H-pyrazol-4-yl]quinoline-2,4-dicarboxamide]	
45.9	Cc1nn(Cc2ccc(C#N)cc2)c(C)c1NC(=O)c1cc(Br)nc2ccccc12 [Example 380, 2-bromo-N-[1-(4-cyanobenzyl)-3,5-dimethyl-1H-pyrazol-4-yl]quinoline-4-carboxamide]	
9	CSc1cc(C(=O)Nc2c(C)nn(Cc3ccc(C#N)cc3)c2C)c2ccccc2n1 [Example 381, N-[1-(4-cyanobenzyl)-3,5-dimethyl-1H-pyrazol-4-yl]-2-(methylsulfanyl)quinoline-4-carboxamide]	
26.1	CSc1cc(C(=O)Nc2c(C(F)(F)F)nn(Cc3ccc(C#N)cc3)c2C)c2ccccc2n1 [Example 382, N-[1-(4-cyanobenzyl)-5-methyl-3-(trifluoromethyl)-1H-pyrazol-4-yl]-2-(methylsulfanyl)quinoline-4-carboxamide]	
3.6	Cc1c(NC(=O)c2cc(S(C)(=O)=O)nc3ccccc23)c(C(F)(F)F)nn1Cc1ccc(C#N)cc1 [Example 384, N-[1-(4-cyanobenzyl)-5-methyl-3-(trifluoromethyl)-1H-pyrazol-4-yl]-2-(methylsulfonyl)quinoline-4-carboxamide]	
1.9	Cc1nn(Cc2ccc(C#N)cc2)c(C(F)(F)F)c1NC(=O)c1cc(C(N)=O)nc2cc(F)ccc12 [Example 389, N^4-[1-(4-cyanobenzyl)-3-methyl-5-(trifluoromethyl)-1H-pyrazol-4-yl]-7-fluoroquinoline-2,4-dicarboxamide]	
5.5	Cc1nn(Cc2c(F)cc(C#N)cc2F)c(C)c1NC(=O)c1cc(C(N)=O)nc2cc(F)ccc12 [Example 390, N^4-[1-(4-cyano-2,6-difluorobenzyl)-3,5-dimethyl-1H-pyrazol-4-yl]-7-fluoroquinoline-2,4-dicarboxamide]	
7	Cc1nn(Cc2c(F)cc(C#N)cc2F)c(C)c1NC(=O)c1cc(C(N)=O)nc2ccccc12 [Example 391, N^4-[1-(4-cyano-2,6-difluorobenzyl)-3,5-dimethyl-1H-pyrazol-4-yl]quinoline-2,4-dicarboxamide]	
21.6	Cc1nn(Cc2c(F)cc(C#N)cc2F)c(C)c1NC(=O)c1cc(C(N)=O)nc2cc(F)c(Cl)cc12 [Example 392, 6-chloro-N^4-[1-(4-cyano-2,6-difluorobenzyl)-3,5-dimethyl-1H-pyrazol-4-yl]-7-fluoroquinoline-2,4-dicarboxamide]	
4.1	Cc1nn(Cc2c(F)cc(C#N)cc2F)c(C)c1NC(=O)c1cc(C(N)=O)nc2cccc(F)c12 [Example 393, N^4-[1-(4-cyano-2,6-difluorobenzyl)-3,5-dimethyl-1H-pyrazol-4-yl]-5-fluoroquinoline-2,4-dicarboxamide]	
2.6	Cc1nn(Cc2c(F)cc(C#N)cc2F)c(C)c1NC(=O)c1cc(C(N)=O)nc2ccc(Br)cc12 [Example 394, 6-bromo-N^4-[1-(4-cyano-2,6-difluorobenzyl)-3,5-dimethyl-1H-pyrazol-4-yl]quinoline-2,4-dicarboxamide]	
5.3	Cc1c(NC(=O)c2cc(C(N)=O)nc3cc(F)ccc23)c(C(F)(F)F)nn1Cc1c(F)cc(C#N)cc1F [Example 395, N^4-[1-(4-cyano-2,6-difluorobenzyl)-5-methyl-3-(trifluoromethyl)-1H-pyrazol-4-yl]-7-fluoroquinoline-2,4-dicarboxamide]	
15.9	Cc1c(NC(=O)c2cc(C(N)=O)nc3ccccc23)c(C(F)(F)F)nn1Cc1c(F)cc(C#N)cc1F [Example 396, N^4-[1-(4-cyano-2,6-difluorobenzyl)-5-methyl-3-(trifluoromethyl)-1H-pyrazol-4-yl]quinoline-2,4-dicarboxamide]	
7.5	Cc1c(NC(=O)c2cc(C(N)=O)nc3cccc(F)c23)c(C(F)(F)F)nn1Cc1c(F)cc(C#N)cc1F [Example 397, N^4-[1-(4-cyano-2,6-difluorobenzyl)-5-methyl-3-(trifluoromethyl)-1H-pyrazol-4-yl]-5-fluoroquinoline-2,4-dicarboxamide]	
